Measurements as given in patent US7951782B2, “Composition effective to prevent or treat adult disease” (Maruha Nichiro Seafoods, Inc, priority 2005, dated 2011).
Residues, ends and D or L forms follow the SMILES beside them. No end group written: not given here.

How the values were obtained:
[1] = Solubility of synthesized polypeptides
Method: Twenty-four polypeptides contained in the alcalase-digested, reverse phase column fraction of the basic fraction were synthesized in yields of 10 to 300 mg in the same manner as described in Example 7 and their characteristic values were determined.

[2] = biological target: T1, xanthine oxidase (XO) of cow's milk (Bos taurus, UniProt P80457); assay: Uric acid synthetase inhibitory activity of peptides that are part of SEQ ID No. 1; type: biochemical; conditions: 15 μM xanthine, 50 mM tris-HCl pH 7.4, 37° C., 10 minutes
T1 construct: xanthine oxidase (XO) of cow's milk (from Wako Pure Chemical); purchased Wako Pure Chemical; host or cells: cow's milk (natural source)
Method: Each of the peptides synthesized was added to 1 ml of a 50 mM tris-HCl buffer (pH 7.4) containing 15 μM xanthine as an enzyme substrate to prepare a reaction system. To the reaction system was added 0.1 unit (containing 100 μl of 25 units/25 ml enzyme solution) of xanthine oxidase (XO) of cow's milk (from Wako Pure Chemical), followed by allowing the system to react at 37° C. for 10 minutes. The amount of uric acid produced from xanthine by the action of xanthine oxidase was evaluated in terms of changes in optical density (OD, at 292 nm), from which the enzyme activity was calculated from formula previously given.

[3] = biological target: T2, xanthine oxidase (XO) from butter milk (Bos taurus, UniProt P80457); assay: Uric acid synthetase inhibitory activity of polypeptides (YINY, YNL, GYL, INF); type: biochemical; conditions: 15 μM xanthine, pH 7.4, 37° C., 10 minutes
T2 construct: xanthine oxidase (XO) from butter milk (from Wako Pure Chemical); purchased Wako Pure Chemical; host or cells: butter milk (natural source)
Method: A polypeptide having SEQ ID No. 2 (YINY), which is contained in the enzyme-digested reverse-phase column fraction of the basic fraction of a shark cartilage extract, was synthesized in the same manner as in Example 7 and added to 200 μl of a 50 mM tris-HCl buffer (pH 7.4) containing 15 μM xanthine as an enzyme substrate to prepare a reaction system. To the reaction system was added 0.1 unit (containing 1 μl of 10 units/100 μl enzyme solution) of xanthine oxidase (XO) from butter milk (from Wako Pure Chemical), followed by allowing the system to react at 37° C. for 10 minutes. The amount of uric acid produced from xanthine by the action of xanthine oxidase was evaluated in terms of changes in optical density (OD, at 292 nm), from which the enzyme activity was calculated from formula previously given.
Polypeptides YNL, GYL, and INF which are contained in the enzyme-digested reverse-phase column fraction of the basic fraction of a shark cartilage extract were synthesized in the same manner as in Example 7 and added to 200 μl of a 50 mM tris-HCl buffer (pH 7.4) containing 15 μM xanthine as an enzyme substrate to prepare a reaction system. […] The amount of uric acid produced from xanthine by the action of xanthine oxidase was evaluated in terms of changes in optical density (OD, at 292 nm), from which the enzyme activity was calculated from formula previously given. […]

T1 sequence (P80457 whole entry): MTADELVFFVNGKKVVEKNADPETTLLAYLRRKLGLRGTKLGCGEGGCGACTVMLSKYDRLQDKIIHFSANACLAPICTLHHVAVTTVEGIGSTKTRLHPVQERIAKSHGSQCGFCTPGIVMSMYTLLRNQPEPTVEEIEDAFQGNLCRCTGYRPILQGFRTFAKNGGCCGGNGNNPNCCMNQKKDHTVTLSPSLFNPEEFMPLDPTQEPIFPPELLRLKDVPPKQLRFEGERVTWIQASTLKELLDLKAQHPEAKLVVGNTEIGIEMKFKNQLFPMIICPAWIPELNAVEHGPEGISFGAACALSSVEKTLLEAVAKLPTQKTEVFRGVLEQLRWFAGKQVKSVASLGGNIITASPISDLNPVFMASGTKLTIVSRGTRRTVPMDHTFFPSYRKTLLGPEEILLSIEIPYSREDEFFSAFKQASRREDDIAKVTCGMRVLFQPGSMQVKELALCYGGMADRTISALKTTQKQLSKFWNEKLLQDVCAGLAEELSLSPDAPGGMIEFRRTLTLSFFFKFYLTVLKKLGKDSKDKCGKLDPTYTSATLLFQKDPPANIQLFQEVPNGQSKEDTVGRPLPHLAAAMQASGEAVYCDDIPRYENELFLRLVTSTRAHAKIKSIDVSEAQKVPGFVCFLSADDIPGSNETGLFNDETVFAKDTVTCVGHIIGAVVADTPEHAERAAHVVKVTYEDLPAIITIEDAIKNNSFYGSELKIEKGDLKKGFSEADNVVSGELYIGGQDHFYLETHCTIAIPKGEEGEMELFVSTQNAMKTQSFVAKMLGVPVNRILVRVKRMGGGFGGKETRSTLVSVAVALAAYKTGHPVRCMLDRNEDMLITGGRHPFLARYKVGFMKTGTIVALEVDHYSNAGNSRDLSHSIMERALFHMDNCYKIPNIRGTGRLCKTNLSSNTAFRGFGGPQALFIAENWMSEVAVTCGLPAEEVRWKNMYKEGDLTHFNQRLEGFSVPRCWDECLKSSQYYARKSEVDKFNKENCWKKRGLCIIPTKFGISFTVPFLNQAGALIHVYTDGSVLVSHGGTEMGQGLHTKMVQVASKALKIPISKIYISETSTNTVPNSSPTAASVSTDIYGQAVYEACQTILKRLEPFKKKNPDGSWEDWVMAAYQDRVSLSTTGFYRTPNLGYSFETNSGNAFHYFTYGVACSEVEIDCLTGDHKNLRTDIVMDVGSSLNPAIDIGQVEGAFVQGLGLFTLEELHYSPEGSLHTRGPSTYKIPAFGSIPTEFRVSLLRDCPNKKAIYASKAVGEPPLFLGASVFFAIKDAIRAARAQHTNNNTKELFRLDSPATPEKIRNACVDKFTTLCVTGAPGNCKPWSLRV
T2 sequence (P80457 whole entry): as above

Compound | Solubility ([1]; in water (H2O)) | also measured
N=C(N)NCCC[C@H](N)C(=O)N[C@@H](Cc1ccc(O)cc1)C(=O)N[C@@H](Cc1ccccc1)C(=O)O [Arg-Tyr-Phe] (H-Arg-Tyr-Phe-OH; N-terminus and C-terminus assumed) | 1 mg/ml in H2O | 
NC(=O)C[C@H](NC(=O)[C@@H](N)CC(=O)O)C(=O)O [DN] (H-Asp-Asn-OH; N-terminus and C-terminus assumed) |  | xanthine oxidase activity in system containing the peptide [2]: inhibited
CC(C)C[C@H](NC(=O)[C@H](Cc1ccc(O)cc1)NC(=O)CN)C(=O)O [GYL, Gly-Tyr-Leu] (H-Gly-Tyr-Leu-OH; N-terminus and C-terminus assumed) | 1 mg/ml in H2O | 
CC(C)C[C@H](NC(=O)[C@H](Cc1ccccc1)NC(=O)CN)C(=O)O [Gly-Phe-Leu] (H-Gly-Phe-Leu-OH; N-terminus and C-terminus assumed) |  | Solubility ([1]; in 10% Acetonitrile in water): 1 mg/ml in 10%
CC[C@H](C)[C@H](N)C(=O)N[C@@H](CC(N)=O)C(=O)N[C@@H](Cc1ccccc1)C(=O)O [INF, Ile-Asn-Phe] (H-Ile-Asn-Phe-OH; N-terminus and C-terminus assumed) | 1 mg/ml in H2O | 
CC[C@H](C)[C@H](N)C(=O)N[C@@H](CC(N)=O)C(=O)N[C@@H](Cc1ccc(O)cc1)C(=O)O [Ile-Asn-Tyr] (H-Ile-Asn-Tyr-OH; N-terminus and C-terminus assumed) |  | Solubility ([1]; in 5% NH4OH with H2O): 1 mg/ml in 5% NH4OH
CC[C@H](C)[C@H](N)C(=O)N[C@@H](Cc1ccc(O)cc1)C(=O)N[C@@H](CC(C)C)C(=O)O [Ile-Tyr-Leu] (H-Ile-Tyr-Leu-OH; N-terminus and C-terminus assumed) |  | Solubility ([1]; in 10% Acetonitrile in water): 1 mg/ml in 10% in
CC(C)C[C@H](N)C(=O)N[C@@H](CC(=O)O)C(=O)N[C@@H](CC(N)=O)C(=O)N[C@@H](Cc1ccc(O)cc1)C(=O)O [LDNY, Leu-Asp-Asn-Tyr] (H-LDNY-OH; N-terminus and C-terminus assumed) | 1 mg/ml in water | xanthine oxidase activity in system containing the peptide [2]: inhibited
CC(C)C[C@H](N)C(=O)N[C@@H](CC(=O)O)C(=O)O [LD] (H-Leu-Asp-OH; N-terminus and C-terminus assumed) |  | xanthine oxidase activity in system containing the peptide [2]: inhibited
CC(C)C[C@H](N)C(=O)N[C@@H](Cc1ccccc1)C(=O)O [Leu-Phe] (H-Leu-Phe-OH; N-terminus and C-terminus assumed) | 1 mg/ml in H2O | 
N[C@@H](Cc1ccccc1)C(=O)N[C@@H](Cc1ccc(O)cc1)C(=O)O [Phe-Tyr] (H-Phe-Tyr-OH; N-terminus and C-terminus assumed) | 1 mg/ml in H2O | 
NC(=O)CC[C@H](NC(=O)[C@H](Cc1c[nH]c2ccccc12)NC(=O)[C@H](CC(N)=O)NC(=O)[C@@H](N)CO)C(=O)O [Ser-Asn-Trp-Gln] (H-SNWQ-OH; N-terminus and C-terminus assumed) | 1 mg/ml in H2O | 
CC[C@H](C)[C@H](NC(=O)[C@@H](N)CO)C(=O)N[C@@H](Cc1ccc(O)cc1)C(=O)N[C@@H](CC(=O)O)C(=O)O [Ser-Ile-Tyr-Asp] (H-SIYD-OH; N-terminus and C-terminus assumed) |  | Solubility ([1]; in 5% NH4OH with H2O): 1 mg/ml in 5% NH4OH
CC(C)C[C@H](NC(=O)[C@@H](N)CO)C(=O)O [Ser-Leu] (H-Ser-Leu-OH; N-terminus and C-terminus assumed) | 1 mg/ml in water | 
CC(C)[C@H](N)C(=O)N[C@@H](CCC(=O)O)C(=O)N[C@@H](Cc1ccc(O)cc1)C(=O)N[C@@H](Cc1ccccc1)C(=O)O [Val-Gln-Tyr-Phe] | 1 mg/ml in water | 
CC(C)[C@H](N)C(=O)N[C@@H](Cc1ccc(O)cc1)C(=O)N[C@@H](CCC(N)=O)C(=O)O [Val-Tyr-Gln] (H-Val-Tyr-Gln-OH; N-terminus and C-terminus assumed) | 1 mg/ml in H2O | 
CC[C@H](C)[C@H](NC(=O)[C@@H](N)Cc1ccc(O)cc1)C(=O)N[C@@H](CC(N)=O)C(=O)N[C@@H](Cc1ccc(O)cc1)C(=O)O [YINY, Try-Ile-Asn-Tyr] (H-YINY-OH; N-terminus and C-terminus assumed) |  | xanthine oxidase activity in system containing the polypeptide [3]: inhibited; Solubility ([1]; in 5% NH4OH with H2O): 1 mg/ml in 5% NH4OH
CC(C)C[C@H](NC(=O)[C@@H](N)Cc1ccc(O)cc1)C(=O)N[C@@H](CC(=O)O)C(=O)N[C@@H](CC(N)=O)C(=O)O [YLDN, Tyr-Leu-Asp-Asn] (H-YLDN-OH; N-terminus and C-terminus assumed) | 1 mg/ml in water | xanthine oxidase activity in system containing the peptide [2]: inhibited
CC(C)C[C@H](NC(=O)[C@H](CC(N)=O)NC(=O)[C@@H](N)Cc1ccc(O)cc1)C(=O)O [YNL, Tyr-Asn-Leu] (H-Tyr-Asn-Leu-OH; N-terminus and C-terminus assumed) | 1 mg/ml in H2O | 
DFWRY [Asp-Phe-Trp-Arg-Tyr] | 1 mg/ml in water | 
SPPYWPY [SPPYWPY, Ser-Pro-Pro-Tyr-Trp-Pro-Tyr] | 1 mg/ml in water | 
YLDNY [YLDNY, Tyr-Leu-Asp-Asn-Tyr] |  | Solubility ([1]; in 10% Acetonitrile in water): 1 mg/ml in 10%
